The structures appear in SMILES notation.

A short description of this data set: gradient 5% acetonitrile 3 min, to 50% in 2 min, to 85% in 15 min, held 3 min, 100 µL/min. The following applies: column: Zorbax Extend-C18 2.1 x 50 mm; eluents: water / acetonitrile, 0.1% formic acid. Summed up:
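Pure standards were analyzed in mixtures of ~100 molecules using HPLC coupled to a quadrupole time-of-flight mass spectrometer, in both positive and negative ionization mode. Separation used a Zorbax Extend-C18 column (2.1 × 50 mm, 1.8 μm) at 100 μL/min, with water and acetonitrile each containing 0.1% formic acid. Dead and dwell volumes were 40 μL and 900 μL, and data were collected over 3 months. Retention time was read from computationally picked adduct peaks, each inspected manually.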
For `COc1ccc(Cl)cc1NC(=O)c1cnc2c(c1)c(=O)n(C)c(=O)n2-c1ccccc1`, the RP-LC retention time was 1010 s. For the compound `Cc1cc(-c2cc(S(=O)(=O)NCCCOC(C)C)c(C)s2)n[nH]1`, the RP-LC retention time turned out to be 770 s. The value for `Cc1nc2cc(-c3noc(C(C)Oc4cccc(Cl)c4)n3)ccc2n(C)c1=O` (stereo unspecified) was 1110 s; that for `CCCN1C(=O)COc2ccc(-c3csc(NC(=O)c4ccc(Br)cc4)n3)cc21` was 1160 s; that for `CCCn1cc(C(=O)Nc2cccc(F)c2)c(S(=O)(=O)N2CCSCC2)n1` was 1070 s. The value for `CC1(C)Cc2cccc(OCC(=O)NCCc3c[nH]c4ccccc34)c2O1` was 850 s; that for `COc1ccc(NC(=O)c2noc3c2CCCCC3)c(OC)c1` was 1080 s.

Turning to `O=C(CSc1nc2ccccc2[nH]c1=O)Nc1ccccc1`, the RP-LC retention time is 699 s. As for `O=C(CSc1nc2ncccc2[nH]1)Nc1ccccc1C(F)(F)F`, the RP-LC retention time came out at 649 s.

Regarding `Cn1cc(S(=O)(=O)N2CCCC2)cc1C(=O)N1CCC(Cc2ccccc2)CC1`, the RP-LC retention time came to 960 s. The value for `CCCC(=O)NC1CCN(c2ccc(C)c(C)c2)C1=O` (stereo unspecified) was 736 s; that for `COc1ccc(CC(=O)Nc2nnc(-c3ccsc3)o2)cc1OC` was 655 s; that for `Cc1ccc2nc(C(=O)N3CCN(c4ccccc4C)CC3)cn2c1` was 664 s. In turn, `O=c1n(Cc2ccc3c(c2)OCO3)nc2c(S(=O)(=O)N3CCc4ccccc4C3)cccn12` came in with an RP-LC retention time of 922 s. In turn, `COc1ccc(S(=O)(=O)N2CC3CN(C(=O)Cc4cccc(F)c4)CC(C2)O3)cc1` yielded an RP-LC retention time of 825 s. The compound `CC(=O)N1CCN(C(=O)c2cccn2CC(=O)N2CCc3ccccc32)CC1` showed an RP-LC retention time of 627 s. With `COc1ccc(CNC(=O)C2(C)CCN(C(=O)NCc3ccco3)CC2)cc1` the figure was 700 s; with `COc1ccccc1NC(=O)Cn1nc2c3sc(N(C)C)nc3ncn2c1=O`, 690 s; with `CCCCCn1c(=O)c2ccccc2n(Cc2nc(-c3ccc(C)c(C)c3)no2)c1=O`, 795 s. `CNC(=O)C1CC(=O)N(C2CCCCC2)C1` (stereo unspecified) had an RP-LC retention time of 609 s. With `COc1ccc(NC(=O)N2CC(Oc3ccc(-c4nc(-c5ccccc5)no4)cc3)C2)cc1` the figure was 1090 s; with `CCCn1cc(CCNS(=O)(=O)CCC)c2cccnc21`, 720 s; with `CCOc1ccc(NC(=O)C2CCN(S(=O)(=O)c3c(C)nn(-c4ccccc4)c3C)CC2)cc1`, 963 s. Take `CSc1cccc(NC(=O)Cn2cc(-c3ccccc3)c3ncn(C4CC4)c(=O)c32)c1`: the RP-LC retention time came out at 1020 s.

Take `COC(=O)C1=CN(c2cccc(F)c2)c2cc(Br)ccc2S1(=O)=O`: the RP-LC retention time was found to be 928 s. The value for `Cc1ccc(-c2nnc(Cc3nc(-c4ccc(Cl)cc4)no3)o2)cc1F` was 1190 s; that for `CC(Oc1ccc(=O)n(-c2ccc(F)cc2)n1)C(=O)Nc1ccc(F)c(F)c1` (stereo unspecified) was 816 s; that for `CCc1ccc(-n2nc(N3CCCC(C(=O)NCc4ccc(OC)cc4OC)C3)ccc2=O)cc1` (stereo unspecified) was 872 s.

Take `COc1ccc(NC(=O)c2cn(-c3cc(N4CCCC4)ncn3)cn2)c(OC)c1`: the RP-LC retention time was 891 s. With `O=C(Nc1ccc(F)cc1F)c1ncccn1`, the RP-LC retention time is 661 s.

In turn, `CC(C)c1cc(C(=O)Nc2ccccc2)nn1C1CCS(=O)(=O)C1` (stereo unspecified) displayed an RP-LC retention time of 845 s. With `O=C(Cc1ccc(F)cc1)Nc1cc(-c2cccs2)no1` the figure was 926 s. The value for `CCC(=O)N1c2ccc(S(=O)(=O)CCC(=O)NCCc3ccc(C)cc3)cc2CC1C` (stereo unspecified) was 874 s. With `Cc1nnc(C2CC3(CCN(CCCO)CC3)CN2Cc2ccccc2)o1` (stereo unspecified) the figure was 577 s. With `COc1ccccc1OCCNC(=O)C1CCc2nc(N3CCC(C)CC3)ncc2C1` (stereo unspecified), the RP-LC retention time was determined as 776 s. `CNc1nc(N(C)C)nc(N(C)C)n1`: the RP-LC retention time is 602 s. `CC(C)c1nnc2n1CCN(C(=O)CC1CCCCC1)C2` registered an RP-LC retention time of 699 s. With `CC1=C(c2ccccc2)S(=O)(=O)N=C1N1CCCN(C(=O)c2ccccn2)CC1` the figure was 693 s. With `CCC(C)NC(=O)NCCc1nc2cccnc2n1Cc1ccccc1` (stereo unspecified) the figure was 685 s; with `O=C(Cn1c(=O)n(C2CCCCC2)c2ncccc21)NCc1cccnc1`, 603 s. On to `Cc1ccccc1CNC(=O)C1CCCN(c2nccnc2Sc2ccccc2)C1` (stereo unspecified), for which the RP-LC retention time was 1200 s. The compound `O=C1CCCc2cc(S(=O)(=O)NCCc3ccc(Cl)cc3)ccc2N1` displayed an RP-LC retention time of 800 s. With `Cc1nn(-c2ccccc2)c(C)c1S(=O)(=O)N1CCC(C(=O)N2CCCCCC2)CC1` the figure was 912 s; with `COc1cccc(NS(=O)(=O)c2cc(-c3[nH]ncc3C(=O)N3CCCCC3)oc2C)c1`, 721 s. In turn, `Cc1nc2cc(-c3noc(-c4ccc(C#N)cc4)n3)ccc2n(C)c1=O` came in with an RP-LC retention time of 965 s. Compound `COCc1c(C(=O)N2CC(F)(F)C[C@H]2c2nc(C)no2)noc1C` came in with an RP-LC retention time of 778 s.

On to `COc1ccccc1-c1noc(-c2nn(-c3ccc(F)c(F)c3)ccc2=O)n1`, for which the RP-LC retention time turned out to be 807 s.

Compound `CN(C)C(=O)c1cc2c(s1)CCC(C(=O)Nc1ccc3c(c1)OCO3)C2` (stereo unspecified) registered an RP-LC retention time of 698 s. The compound `Cc1cc2c(cc1S(=O)(=O)N1CCCC1C(=O)NCc1ccccc1Cl)OC(C)C(=O)N2` (stereo unspecified) gave an RP-LC retention time of 812 s. With `CC(C)Cn1cc(CCNC(=O)c2ccc(F)cc2F)c2cccnc21` the figure was 834 s. The value for `COc1cccc(-n2nnc(C(=O)O)c2C(C)C)c1` was 734 s; that for `Cc1ccc(Nc2nc(-c3cccnc3)nc3ccccc23)cc1` was 742 s; that for `O=C(NC(c1ccccc1)c1ccccc1)N1CCN(CC(F)(F)F)CC1` was 886 s. The value for `Cn1ncc(N2CCCC(C(=O)Nc3ccc4c(c3)CCC4)C2)cc1=O` (stereo unspecified) was 786 s; that for `Cc1ccc(C)c(NC(=O)c2c(O)c3cccnc3n(-c3ccc(F)cc3)c2=O)c1` was 1360 s; that for `CCC1Cn2c(C(=O)NCCc3c[nH]c4ccccc34)cc3c(Cl)ccc(c32)O1` (stereo unspecified) was 1220 s. As to `COc1ccc(-c2[nH]ncc2CN2CCC3(CCC3O)CC2)cc1` (stereo unspecified), the RP-LC retention time is 584 s. The compound `CC(C)CNS(=O)(=O)c1cccc2cnccc12` returned an RP-LC retention time of 647 s. `CC(C)NC(=O)c1ccc2c(c1)N(S(C)(=O)=O)CC2` showed an RP-LC retention time of 691 s. Take `O=c1oc2cc(O)ccc2s1`: the RP-LC retention time was determined as 771 s. The value for `CCC(CC)C(=O)N1CCN(c2nc3cccnc3n(CC)c2=O)CC1` was 942 s. With `CCOc1nccnc1N1CCC(NC(=O)Cc2cccnc2)C1` (stereo unspecified) the figure was 534 s; with `COc1ccc(CN2C(=O)[C@H](OC)[C@@H]2C2=CCN(C(=O)C3(c4ccccc4)CC3)CC2)cc1`, 870 s. With `CCCCC(Sc1nc(=O)[nH]c(C)c1C(=O)OCC)C(=O)O` (stereo unspecified) the figure was 663 s. `CCc1nc2cc(-c3noc(COc4ccccc4)n3)ccc2o1` displayed an RP-LC retention time of 1060 s. Turning to `COc1ccc(-c2ncc3c(n2)CCN(S(=O)(=O)c2ccc(F)c(C)c2)C3)cc1`, the RP-LC retention time came to 1100 s. The value for `CCCOC(=O)C1=C(C)NC2=C(C(=O)C(C(=O)OC)C(C)C2)C1c1ccccc1F` (stereo unspecified) was 954 s. The value for `Cc1ccc(CNC(=O)C2CCN(c3cncnc3N3CCCCC3)CC2)o1` was 643 s; that for `CCSc1nc2ccc(NS(=O)(=O)c3ccc(F)c(Cl)c3)cc2s1` was 1110 s; that for `CCNC(=O)c1cc(N2CCCC2)nc2ccc(F)cc12` was 580 s.

`COc1ccc(-c2ccc(=O)n(Cc3nc(-c4ccc(F)cc4)no3)n2)cc1OC`: the RP-LC retention time was 892 s. `CCOc1ccc(CNC(=O)Cc2csc3nc(-c4ccc(C)c(C)c4)cn23)cc1` displayed an RP-LC retention time of 847 s. The value for `COC(=O)c1ccc(NC(=O)Cc2csc3nc(-c4ccc(C)c(C)c4)cn23)cc1` was 849 s; that for `O=C(COc1ccccc1)Nc1nc(-c2ccc(F)cc2)cs1` was 1050 s; that for `CCOC(=O)c1c(C)n(CCNC(C)=O)c2cc(Br)c(OC)cc12` was 706 s. With `O=C(C1CCN(c2ncnc3c2oc2ccccc23)CC1)N1CCCC1` the figure was 654 s; with `CCn1cc(C(=O)NCCc2cccs2)c(=O)c2cc(OC)ccc21`, 780 s; with `CC(C)n1c(=O)sc2cc(S(=O)(=O)N3CCC(C(=O)Nc4ccc(Cl)cc4)CC3)ccc21`, 1050 s. The value for `Cc1cccc(-c2noc(C3CCCN3S(=O)(=O)c3ccc(C(C)C)cc3)n2)c1` (stereo unspecified) was 1330 s; that for `Cc1ccc(NC(=O)CN2C(=O)CSC(C)C2=O)cc1Cl` (stereo unspecified) was 819 s. In turn, `O=C(c1ccc2ccnc(N3CCN(c4ccc(F)cc4)CC3)c2c1)N1CCN(c2ncccn2)CC1` displayed an RP-LC retention time of 749 s.
